Measured values reported in US20080113927A1, “Indolopyrrolocarbazole derivatives and anti-tumor agent” (priority 2003, published 2008).

Key:
[1] = system: MKN-45 (human stomach cancer cells); experiment: Cell-growth inhibitory activity against MKN-45 (WST-8 method); type: cell-based; settings: 72 h, MKN-45 cells, 3 days incubation, read-out: 50% tumor growth inhibiting activity (IC50)
Experimental: Method for Determining the Effects of the Agent on Cells
Fetal calf serum (FCS) was obtained from Molgate and the DMEM culture medium from Asahi Technoglass Inc.
Human gastric cancer cell MKN-45 was obtained from the IBL Co., Ltd.
The cells were suspended in 10% FCS-DMEM medium and the suspension was distributed in a 96-well plastic plate in the amount of 1000 cells/50 microliter/well. The plate was incubated at 37° C. in 5% CO2-95% air overnight. Each drug was dissolved in dimethylsulfoxide or a suitable solvent by serial dilution and distributed in the wells at 50 microliters per well in which the cells had been added. The plate was incubated at 37° C. in 5% CO2-95% air for 3 days. The growth of the cultured cells was measured by the WST-8 method (H. Tominaga et al., Anal. Commun., 36, 47-50 (1999)). In the WST-8 method, 10 microliter of WST-8 reagent solution was added, and then incubated at 37° C. for 1 to 6 hours. After stirring the plate, the resulting formazan was quantitatively analyzed by colorimetry to determine the inhibition rate of the drug. Thus, 50% inhibitory concentration (IC50) for the growth was determined for each compound.

[2] = system: Human lung cancer cells LX-1; experiment: Anti-tumor effect on LX-1 solid tumor transplanted subcutaneously in nude mice; type: in vivo, nude mice (Balb/c-nu/nu); settings: LX-1 in nude mice
Excerpt: Method for Determining the Effects of the Agent on Animals
Female nude mice of 5 weeks of age (Balb/c-nu/nu) were obtained from Clea Japan, Inc. Human lung cancer cells LX-1 were obtained from the Japanese Foundation for Cancer Research Institute.
The synthesis of the control compound is described in JP-A No. 10-245390, Example 14.
The cancer cells were transplanted subcutaneously to nude mice so that solid cancer can be maintained. The solid cancer was sliced into 3 mm cubic blocks in physiological saline under ice cooling. One of the blocks was transplanted subcutaneously to a nude mouse to be used in experiment (Day 1). The cancer cells were grown subcutaneously in the mouse to form a tumor mass. The size of the mass was measured with a lapse of time, and when the volume reached 0.2 cm^3 or more (approximation by volume=major axis×minor axis^2÷2), administration of the drug was started. The drug was dissolved in 5% glucose solution and administered intravenously at the tail successively twice a week for 2 weeks (total 4 times). Two weeks after the administration, the percentage (T/C%) of the tumor volume (T) was calculated from the tumor volume (C) in the control group and that (T) in the test group as a tumor volume ratio.

Row | IC50 [1] | Structure (SMILES) | Anti-tumor activity against human lung cancer cells compared with the control compound ([2]; comparison from Table 2) | Ratio of tumor volume Treated/Control (%) ([2]; i.v. twice a week for 2 weeks, total dose 1200 mg/m^2, two weeks after the administration)
1 | 2.8 nM | O=C1c2c(c3c4ccc(O)cc4n(C4OC(CO)C(O)C(O)C4O)c3c3[nH]c4cc(O)ccc4c23)C(=O)N1NCc1ccoc1 (stereo not shown) [Example 5] |  | 
2 | 5 nM | O=C1c2c(c3c4ccc(O)cc4n(C4OC(CO)C(O)C(O)C4O)c3c3[nH]c4cc(O)ccc4c23)C(=O)N1NCc1ccco1 (stereo not shown) [Example 6] |  | 
3 | 6.3 nM | O=C1c2c(c3c4ccc(O)cc4n(C4OC(CO)C(O)C(O)C4O)c3c3[nH]c4cc(O)ccc4c23)C(=O)N1NCCCc1cccnc1 (stereo not shown) [Example 4] |  | 
4 | 2.7 nM | O=C1c2c(c3c4ccc(O)cc4n(C4OC(CO)C(O)C(O)C4O)c3c3[nH]c4cc(O)ccc4c23)C(=O)N1NCc1ccsc1 (stereo not shown) [Example 7] |  | 
5 | 0.95 nM | O=C1c2c(c3c4ccc(O)cc4n(C4OC(CO)C(O)C(O)C4O)c3c3[nH]c4cc(O)ccc4c23)C(=O)N1NCc1cccnc1 (stereo not shown) [Example 3] |  | 
6 | 0.71 nM | O=C1c2c(c3c4ccc(O)cc4n(C4OC(CO)C(O)C(O)C4O)c3c3[nH]c4cc(O)ccc4c23)C(=O)N1NCc1ccncc1 (stereo not shown) [Example 1] | markedly a stronger anti-tumor activity | 1% (1200 mg/m^2)
7 | 4.1 nM | O=C1c2c(c3c4ccc(O)cc4n(C4OC(CO)C(O)C(O)C4O)c3c3[nH]c4cc(O)ccc4c23)C(=O)N1NCc1cccs1 (stereo not shown) [Example 8] |  | 
8 | 1.4 nM | O=C1c2c(c3c4ccc(O)cc4n(C4OC(CO)C(O)C(O)C4O)c3c3[nH]c4cc(O)ccc4c23)C(=O)N1NCc1ccccn1 (stereo not shown) [Example 2] |  | 
